Laboratory results from article PMC7069944, “Amino acid levels determine metabolism and CYP450 function of hepatocytes and hepatoma cell lines” (Nature Communications, 2020).
Several values for one entry are separate records, joined by “and”; a condition that tells them apart may be missing. Equal values may be shown once.

Columns and labels:
HepG2 = test: Repeated-exposure DILI training compounds, resazurin conversion, HepG2; conditions: replicates, listed as Triglitazone
In short: (§1)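 Viability by resazurin conversion, correlated with Cmax, was assessed after drug exposure in 384-well cultures of differentiated PSCs and of HepG2 (40,000 cells/well). Dosing began 8 h post-attachment, with untreated wells as negative control.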

HC6X = test: Repeated-exposure DILI training compounds, resazurin conversion, HC6X; conditions: replicates, listed as Triglitazone
In short: as §1

HLC = test: Repeated-exposure DILI training compounds, resazurin conversion, HLC; conditions: replicates, listed as Triglitazone
In short: as §1

HC3X = test: Repeated-exposure DILI training compounds, resazurin conversion, HC3X; conditions: for resazurin conversion (Supplementary Figure 7D): HC3X AAGLY D40, replicates, listed as Triglitazone
In short: as §1

## Cc1c(C)c2c(c(C)c1O)CCC(C)(COc1ccc(CC3SC(=O)NC3=O)cc1)O2 (centres unmarked) [troglitazone]
HepG2; HepG2 AAGLY D30, 3 uM
  resazurin conversion (Supplementary Figure 7D): 98.3 and 94.5 and 92
HepG2; HepG2 AAGLY D30, 5 uM
  resazurin conversion (Supplementary Figure 7D): 68.5 and 110.9 and 79 and 93.8 and 74.1 and 107
HepG2; HepG2 AAGLY D30, 10 uM
  resazurin conversion (Supplementary Figure 7D): 74 and 89.9 and 83.3 and 84.8 and 74.9 and 104.6
HepG2; HepG2 AAGLY D30, 30 uM
  resazurin conversion (Supplementary Figure 7D): 79.1 and 100.2 and 93 and 115.8 and 83.4 and 116.8
HepG2; HepG2 AAGLY D30, 50 uM
  resazurin conversion (Supplementary Figure 7D): 83.1 and 117.7 and 95.2 and 107.4 and 94.4 and 118.1
HepG2; HepG2 AAGLY D30, 100 uM
  resazurin conversion (Supplementary Figure 7D): 64.7 and 70 and 66.6 and 77.3 and 64.4 and 73.3
HepG2; HepG2 AAGLY D30, 300 uM
  resazurin conversion (Supplementary Figure 7D): 29.5 and 32.5 and 30.3 and 31.2 and 30.4 and 32
HepG2; HepG2 AAGLY D30, 600 uM
  resazurin conversion (Supplementary Figure 7D): 29.5 and 33.9 and 30.8 and 32.7 and 30.9 and 34.9
HepG2; HepG2 AAGLY D30, 1200 uM
  resazurin conversion (Supplementary Figure 7D): 31 and 33.3 and 30.9 and 31.3 and 30.2 and 34.1
HepG2; HepG2 CTL D7, 3 uM
  resazurin conversion (Supplementary Figure 7D): 96.5
HepG2; HepG2 CTL D7, 5 uM
  resazurin conversion (Supplementary Figure 7D): 108.7 and 103 and 108 and 101.8 and 110.4 and 108.6
HepG2; HepG2 CTL D7, 10 uM
  resazurin conversion (Supplementary Figure 7D): 100.5 and 91 and 96 and 94.6 and 100.7 and 102
HepG2; HepG2 CTL D7, 30 uM
  resazurin conversion (Supplementary Figure 7D): 107.7 and 102.1 and 104.6 and 106.5 and 111.7 and 103.3
HepG2; HepG2 CTL D7, 50 uM
  resazurin conversion (Supplementary Figure 7D): 106.3 and 99.2 and 103.6 and 101.1 and 106.7 and 102.4
HepG2; HepG2 CTL D7, 100 uM
  resazurin conversion (Supplementary Figure 7D): 21.4 and 9.6 and 9.2 and 17 and 16.3 and 15.4
HepG2; HepG2 CTL D7, 300 uM
  resazurin conversion (Supplementary Figure 7D): 8.5 (3×) and 8.1 and 8.3 and 8.2
HepG2; HepG2 CTL D7, 600 uM
  resazurin conversion (Supplementary Figure 7D): 8.3 and 8 (2×) and 8.4 and 7.9 (2×)
HepG2; HepG2 CTL D7, 1200 uM
  resazurin conversion (Supplementary Figure 7D): 9.4 and 9.5 and 9.7 and 9.2 and 9.3 and 9.1
HC6X; HC6X AAGLY D40, 3 uM
  resazurin conversion (Supplementary Figure 7D): 67.6 and 80.5 and 115.9 and 110.8
HC6X; HC6X AAGLY D40, 5 uM
  resazurin conversion (Supplementary Figure 7D): 97.5 and 124.6 and 75.2 and 88 and 91.2 and 78.9
HC6X; HC6X AAGLY D40, 10 uM
  resazurin conversion (Supplementary Figure 7D): 28.6 and 26.8 and 51 and 28.8 and 31.8 and 23.3
HC6X; HC6X AAGLY D40, 30 uM
  resazurin conversion (Supplementary Figure 7D): 17.6 and 19.6 and 21.9 and 19.3 and 17.4 and 18.4
HC6X; HC6X AAGLY D40, 50 uM
  resazurin conversion (Supplementary Figure 7D): 18.5 and 22.2 and 22.6 and 19.7 and 17.5 and 18.3
HC6X; HC6X AAGLY D40, 100 uM
  resazurin conversion (Supplementary Figure 7D): 17.7 (2×) and 19.3 and 19.5 and 17.5 and 18.3
HC6X; HC6X AAGLY D40, 300 uM
  resazurin conversion (Supplementary Figure 7D): 18.9 and 19.1 and 19.4 (2×) and 19.9 and 18.8
HC6X; HC6X AAGLY D40, 600 uM
  resazurin conversion (Supplementary Figure 7D): 20.5 and 21.3 and 23.4 and 22.4 (2×) and 23.3
HC6X; HC6X AAGLY D40, 1200 uM
  resazurin conversion (Supplementary Figure 7D): 19.6 and 19.4 and 20.1 and 19.9 and 18.6 and 18.9
HC6X; HC6X AAGLY D40 Remove dox, 5 uM
  resazurin conversion (Supplementary Figure 7D): 197.5 and 139.5 and 221.6 and 148.2 and 134.8 and 149.8
HC6X; HC6X AAGLY D40 Remove dox, 10 uM
  resazurin conversion (Supplementary Figure 7D): 133 and 100.2 and 218.5 and 104.9 and 119 and 93.7
HC6X; HC6X AAGLY D40 Remove dox, 30 uM
  resazurin conversion (Supplementary Figure 7D): 24.4 and 26.5 and 25.9 (2×) and 27.1 and 24.9
HC6X; HC6X AAGLY D40 Remove dox, 50 uM
  resazurin conversion (Supplementary Figure 7D): 23.5 (2×) and 23.1 and 23.9 and 23.4 and 23.3
HC6X; HC6X AAGLY D40 Remove dox, 100 uM
  resazurin conversion (Supplementary Figure 7D): 24.4 and 24.5 and 24 and 23.7 and 23.5 and 24.2
HC6X; HC6X AAGLY D40 Remove dox, 300 uM
  resazurin conversion (Supplementary Figure 7D): 25.6 and 24.8 (2×) and 25 (2×) and 24.6
HC6X; HC6X AAGLY D40 Remove dox, 600 uM
  resazurin conversion (Supplementary Figure 7D): 26.9 and 26.7 and 26.1 (2×) and 25.7 and 26.3
HC6X; HC6X AAGLY D40 Remove dox, 1200 uM
  resazurin conversion (Supplementary Figure 7D): 28.5 (2×) and 27.6 and 27.4 and 27.9 and 28.4
HLC; HLC AAGLY D40, 5 uM
  resazurin conversion (Supplementary Figure 7D): 153.5 and 121.4 and 146 and 101.6 and 123.2 and 125.5
HLC; HLC AAGLY D40, 10 uM
  resazurin conversion (Supplementary Figure 7D): 135.4 and 92.9 and 151 and 74.5 and 125.5 and 149.7
HLC; HLC AAGLY D40, 30 uM
  resazurin conversion (Supplementary Figure 7D): 16.5 and 14.5 and 14 and 11.9 and 15.8 and 12.7
HLC; HLC AAGLY D40, 50 uM
  resazurin conversion (Supplementary Figure 7D): 11.8 (3×) and 11.4 (2×) and 11.7
HLC; HLC AAGLY D40, 100 uM
  resazurin conversion (Supplementary Figure 7D): 11.9 (2×) and 12.3 and 12.2 and 12.1 (2×)
HLC; HLC AAGLY D40, 300 uM
  resazurin conversion (Supplementary Figure 7D): 12.4 and 12.8 (2×) and 12.6 (2×) and 12.7
HLC; HLC AAGLY D40, 600 uM
  resazurin conversion (Supplementary Figure 7D): 13.8 (2×) and 13.7 and 13.2 and 13.4 and 13.6
HLC; HLC AAGLY D40, 1200 uM
  resazurin conversion (Supplementary Figure 7D): 14.9 and 14.8 and 14.3 and 15 and 14.7 and 14.5
HLC; HLC LDM D40, 3 uM
  resazurin conversion (Supplementary Figure 7D): 124.9 and 86.8 and 81.1 and 83.4
HLC; HLC LDM D40, 5 uM
  resazurin conversion (Supplementary Figure 7D): 112.5 and 109.2 and 104.5 and 65.4 and 87.8 and 121.6
HLC; HLC LDM D40, 10 uM
  resazurin conversion (Supplementary Figure 7D): 119.2 and 88.2 and 119.3 and 84.6 and 119 and 129.3
HLC; HLC LDM D40, 30 uM
  resazurin conversion (Supplementary Figure 7D): 64.9 and 19.9 and 24.5 and 26.5 and 51.6 and 125
HLC; HLC LDM D40, 50 uM
  resazurin conversion (Supplementary Figure 7D): 9.4 and 9.5 and 9.6 and 12.8 and 134 and 114.9
HLC; HLC LDM D40, 100 uM
  resazurin conversion (Supplementary Figure 7D): 9.6 and 9.9 and 9.7 and 9.4 and 10.4 and 10.1
HLC; HLC LDM D40, 300 uM
  resazurin conversion (Supplementary Figure 7D): 10.1 (2×) and 10.3 and 9.6 and 10 and 10.2
HLC; HLC LDM D40, 600 uM
  resazurin conversion (Supplementary Figure 7D): 10.4 and 10.5 and 10.2 (2×) and 10.8 and 11.3
HLC; HLC LDM D40, 1200 uM
  resazurin conversion (Supplementary Figure 7D): 11.2 (3×) and 11.3 and 11.1 and 11.5
HC3X; 3 uM
  resazurin conversion (Supplementary Figure 7D): 100.4 and 118.6 and 117.6 and 139.7 and 113 and 95.6
HC3X; 5 uM
  resazurin conversion (Supplementary Figure 7D): 108.1 and 113 and 110 and 124 and 122.3 and 125.6
HC3X; 10 uM
  resazurin conversion (Supplementary Figure 7D): 64.3 and 64.1 and 94.3 and 59.1 and 78.4 and 71.8
HC3X; 30 uM
  resazurin conversion (Supplementary Figure 7D): 7.7 (3×) and 7.6 (2×) and 7.8
HC3X; 50 uM
  resazurin conversion (Supplementary Figure 7D): 7.8 (4×) and 7.7 and 7.9
HC3X; 100 uM
  resazurin conversion (Supplementary Figure 7D): 7.7 and 7.9 (2×) and 8 (2×) and 7.8
HC3X; 300 uM
  resazurin conversion (Supplementary Figure 7D): 8.6 (2×) and 8.5 and 8.4 and 8.7 and 8.3
HC3X; 600 uM
  resazurin conversion (Supplementary Figure 7D): 8.6 and 9 and 8.5 and 8.7 and 8.8 and 9.1
HC3X; 1200 uM
  resazurin conversion (Supplementary Figure 7D): 8.5 and 8.9 and 8.6 (2×) and 8.8 and 9
HC3X; human
  IC50/Cmax: 1.6
